These results are taken from patent US20250230438A1, “NEURAL REPAIR THROUGH INHIBITION OF REG3A SIGNALING” (UNIVERSITY OF SOUTH CAROLINA, priority 2023, published 2025).

Entries after “also recorded” stand apart in the source; their conditions may differ.

Assay [1] concerns dorsal root ganglia (DRG) neurons. As to the kind of experiment: Axon growth and branching in dissociated adult mouse DRG cultures. It is filed as cell-based. The following applies: for effect on recREG3A-induced decrease in axon growth / effect on recREG3A-induced increase in axon branching: co-treatment with recREG3A. The source says: Previously, it was shown that Reg3A mRNA expression increases after nerve injury and the mRNA is transported into regenerating peripheral nerve axons and spinal cord axon. The spinal cord model used a peripheral nerve graft to support regenerating of ascending spinal cord axons after transection. To determine if REG3A protein might affect axon growth, whether the dorsal root ganglia (DRG) neurons respond to recombinant human REG3A (recREG3A) was investigated.
shRNA depletion of Reg3A mRNA was used to determine if the endogenous REG3A protein reduces axon growth.
(§1) Specifically, it was observed that KHSRP protein increases in regenerating sciatic nerve axons, which promotes decay of regeneration-associated mRNAs including Gap43 and Snap25 mRNAs. Thus, herein it was investigated whether REG3A effects might converge on Khsrp mRNA.

Assay [2] deals with KHSRP. Description: Axonal KHSRP protein levels in DRG cultures. In kind it is cell-based, mouse. The settings on record: for effect on recREG3A-dependent increase in axonal KHSRP: co-treatment with recREG3A.
Description: as §1

The test system of assay [3] is eIF2α^PS51. Description: eIF2α^PS51 immunofluorescence in growth cones of DRG cultures. The following applies: acute treatment of adult mouse DRG cultures. In kind it is cell-based. The source says: Previously, it was observed that axonal Khsrp mRNA translation is increased by activation of the PERK and subsequent PERK-dependent serine 51 phosphorylation of the translation initiation factor eIF2a. […] PERK inhibition similar reduced the REG3A-dependent translation of axonal GFP^MYR5′/3′khsrp in FRAP assays (FIG. 9C).

Assay [4] concerns growth cone calcium. Description: Axonal/growth cone calcium by GCaMP fluorescence in DRG spot cultures. In kind it is cell-based, mouse. The following applies: DRG spot cultures with AAV9-GCaMP. From the text: The findings above provide circumstantial but not direct evidence for elevated axoplasmic calcium as a key regulator of REG3A's effects on axons. As such, herein it was investigated whether REG3A increases calcium levels in DRG neurons using genetically encoded GCaMP fluorescent calcium indicator in DRG spot cultures. For this, DRG spot cultures were co-transduced with AAV9-GCaMP. […] Axonal calcium levels are known to increase immediately after axotomy but based on translational regulation of different axonal mRNAs that respond to elevated vs. normal axonal calcium levels, the axotomy induced increase in calcium returns to pre-injury levels within 16 hours after axotomy to allow translation of axonal mRNAs encoding regeneration-associated proteins. Thus, intra-axonal calcium levels in regenerating axons were monitored beginning at 16 hours after axotomy. The regenerating axons show an oscillatory GCaMP signal with broad peaks approximately every 50-70 min over a 4-hour period in AAV9-shCntl-transduced DRG spot cultures (FIG. 8E).

As for `C[C@@H]1C[C@@H]([C@H](O)CC2CC(=O)NC(=O)C2)C(=O)[C@@H](C)C1` [cycloheximide], in assay [1], the “effect on recREG3A-induced decrease in axon growth” value is on record as “prevented” and the “effect on recREG3A-induced increase in axon branching” value is on record as “prevented”. The “effect on recREG3A-dependent increase in axonal KHSRP” value (“effect on recREG3A-dependent increase” for short) in assay [2] is given as “did not occur”.
As to `O=C(O)CN(CC(=O)O)c1ccccc1OCCOc1ccccc1N(CC(=O)O)CC(=O)O` [BAPTA], the “effect on recREG3A-dependent increase” value in assay [2] was “also attenuated”.
Take `CC(=O)OCOC(=O)CN(CC(=O)OCOC(C)=O)c1ccccc1OCCOc1ccccc1N(CC(=O)OCOC(C)=O)CC(=O)OCOC(C)=O` [BAPTA-AM]: in assay [1], the “effect on recREG3A-induced decrease in axon growth” value is reported as “blocked” and the “effect on recREG3A-induced increase in axon branching” value is on record as “blocked”. The “effect on recREG3A-dependent increase” value in assay [2] was “attenuated”.

B1: recREG3A: recombinant human REG3A (recREG3A) (protein)
chain: EDFQKEVPSPRTSCPMGYKAYRSHCYALVMTPKSWFQADLVCQKRPSGHLVSILSGGEASFVSSLVNGRVDNYQDIWIGLHDPTMGQQPNGGGWEWSNSDVLNYLNWDGDPSSTVNRGHCGSLTASSGFLKWGDYYCDGTLPFVCKFKQ
Turning to B1, in assay [3], the “eIF2α^PS51 levels in growth cones” value is “increased eIF2α^PS51 levels in growth cones”. Further, in assay [1] (bath application of recREG3A, adult mouse sensory neurons), the axon branching entry is reported as “increased axon branching”. In assay [1] (bath application of recREG3A, adult mouse sensory neurons, 24-hour exposure), the axon growth result is on record as “reduced axon growth; also recorded: decreases axon extension”. The “growth cone / intra-axonal calcium levels (GCaMP)” value in assay [4] is reported as “significantly increased growth cone calcium”; in assay [4] (listed as RecREG3A), “increases”. The “KHSRP levels in distal axons” value in assay [2] (recREG3A application) is listed as “increased KHSRP levels in distal axons”.
